For one series, the system named is Apis mellifera. Conditions: acute; duration: 48 hours; oral; unspecified; mortality.
Another series relates to Landoltia sp. To be noted: acute; duration: 7 days; biomass.
Another series has as its system Bibionidae. Conditions: chronic/long-term; duration: 28 days; development.
A further series concerns Tagia sp. To be noted: acute, duration: 14 days.
The next series relates to Canidae. Conditions: subchronic; duration: 90 days; oral; Dog Other; clinical chemistry.
For the next series, the system named is Anas platyrhynchos. Conditions: oral, mortality.
The test system of a further series is Daphnia magna. To be noted: chronic/long-term; duration: 21 days; reproduction.
In another series the test system is Oncorhynchus mykiss. Conditions: chronic/long-term; duration: 21 days; mortality.
The subject of another series is Lepomis macrochirus. To be noted: acute; duration: 96 hours; mortality.
Another series relates to Anabaena flosaquae. To be noted: acute; duration: 72 hours; biomass.
The next series relates to Aphidius rhopalosiphi. The series can be described thus: LR50; higher = less toxic. Conditions: not reported; mortality.

Converted amounts (≈) assume the structure as drawn. Where only a bound is given, the exact number is not on record here.

Take `N#CN` [Cyanamide]: the LD50 in the series on Apis mellifera is > 10 µg/piece; in the series on Rattus norvegicus (acute, oral, mortality) it was 223 mg/kg-day; in the series with Colinus virginianus (acute, oral, mortality), 350 mg/kg-day. For the same molecule, the NOEC came to 0.5 mg/L in the series with Landoltia sp.; 6.6 mg/L in the series on Bibionidae; 55.7 mg/kg with Tagia sp. (body weight); 0.1 mg/L in the series with Daphnia magna; 13.3 mg/kg-day in the series on Colinus virginianus (reproduction developmental); 3.7 mg/L with Oncorhynchus mykiss. Besides, in the series with Anabaena flosaquae, the NOEC was 0.05 mg/L. Moreover, the LC50 is > 112 mg/kg in the series with Tagia sp. (mortality); > 435 mg/kg-day in the series with Anas platyrhynchos (short-term, feed); > 1040 mg/kg-day in the series with Colinus virginianus (acute, oral, diet, mortality); 43.1 µg/mL (≈ 1030 µM) in the series on Lepomis macrochirus. Further, the NOAEL (in general, the highest tested level that showed no adverse finding) was 5 mg/kg-day in the series with Rattus norvegicus (developmental, development) and 0.6 mg/kg-day in the series on Canidae. The same molecule had an NOEL in the series on Rattus norvegicus (reproduction developmental, reproduction) of 3.75 mg/kg-day. The molecule also yielded an LR50 in the series on Aphidius rhopalosiphi of 432 g/ha.

With `N#CN=C(N)N` [Cyanoguanidine], in the series with Anas platyrhynchos (acute, unspecified), the LD50 is > 2000 mg/kg-day.

The values are drawn from EPA's ToxValDB 9.5 (doi:10.2903/j.efsa.2010.1873).
